In ChEMBL document CHEMBL6087390, “Pyridine and Pyrimidine hybrids as privileged scaffolds in antimalarial drug discovery: A recent development” (Bioorg Med Chem Lett, 2024):

Legend:
[1] = Cytotoxicity against african green monkey Vero cells assessed as cell viability measured after 48 hrs by MTT assay; assay type: toxicity, cell-based, Chlorocebus sabaeus; settings: African green monkey (Chlorocebus sabaeus)
[2] = test system: Plasmodium falciparum; experiment: Antimalarial activity against Plasmodium falciparum Dd2 assessed as reduction in parasite growth; assay type: functional, organism-based
[3] = test system: Plasmodium falciparum; experiment: Antimalarial activity against Plasmodium falciparum NF54; assay type: functional, organism-based
[4] = test system: Plasmodium falciparum; experiment: microbe, parasite or virus in culture; settings: W2
Description: Antimalarial activity against Plasmodium falciparum W2 assessed as reduction in parasite growth

[5] = test system: Plasmodium falciparum; experiment: Antimalarial activity against Plasmodium falciparum D6 assessed as reduction in parasite growth; assay type: functional, organism-based
[6] = Cytotoxicity against African green monkey Vero cells assessed as reduction in cell growth measured after 72 hrs by MTT assay; assay type: toxicity, cell-based; settings: African green monkey (Chlorocebus sabaeus)
[7] = test system: Plasmodium falciparum; experiment: Antiplasmodial activity against Plasmodium falciparum NF54 assessed as reduction in parasite growth; assay type: functional, organism-based
[8] = test system: Plasmodium falciparum; experiment: Antiparasitic activity against Plasmodium falciparum 3D7 assessed as reduction in parasite growth; assay type: functional, organism-based
[9] = test system: Plasmodium falciparum; experiment: Antiplasmodial activity against multidrug resistant Plasmodium falciparum K1 assessed as reduction in parasite growth by [3H]-hypoxanthine incorporation assay; assay type: functional, organism-based
[10] = test system: HepG2; experiment: Cytotoxicity against human HepG2 cells assessed as reduction in cell viability measured for 48 hrs by MTT assay; assay type: functional
[11] = test system: Plasmodium falciparum; experiment: Antimalarial activity against Plasmodium falciparum 3D7 assessed as inhibition of parasite growth measured after 72 hrs by SYBR Green I staining based analysis; assay type: functional, organism-based; settings: 3D7, 72 h
[12] = test system: Plasmodium falciparum; experiment: Antiplasmodial activity against Plasmodium falciparum Dd2 assessed as reduction in parasite growth measured after 72 hrs by SYBR Green 1 staining based assay; assay type: functional, organism-based; settings: Dd2, 72 h
[13] = test system: HepG2; experiment: Cytotoxicity against human HepG2 cells assessed as reduction in cell viability incubated for 72 hrs by MTT assay; assay type: functional
[14] = test system: Plasmodium falciparum; experiment: Antimalarial activity against Plasmodium falciparum 3D7 assessed as inhibition of parasite growth incubated for 72 hrs by SYBR Green I staining based analysis; assay type: functional, organism-based; settings: 3D7, 72 h
[15] = test system: HepG2; experiment: Cytotoxicity against human HepG2 cells assessed as reduction in cell viability measured for 48 hrs by SRB assay; assay type: functional
[16] = Cytotoxicity against human HFF cells assessed as inhibition of cell viability measured after 48 hrs by MTT assay; assay type: toxicity, cell-based

In the case of `Cc1nc(OCc2cn(CCNc3ccnc4cc(Cl)ccc34)nn2)nc(-c2ccccc2[N+](=O)[O-])c1C(=O)OC(C)C`, the IC50 at 48 h [1] is reported as 150000 nM, the IC50 [2] is reported as 990 nM and the IC50 [3] is reported as 180 nM.
For `Cc1nc(OCc2cn(CCCNc3ccnc4cc(Cl)ccc34)nn2)nc(-c2ccc([N+](=O)[O-])cc2)c1C(=O)OC(C)C`, the IC50 [2] was 4500 nM and the IC50 [3] was 40 nM.
For `CCN1CCN(c2cc(C)nc(N(CCCNc3ccnc4cc(Cl)ccc34)Cc3cccs3)n2)CC1`, the IC50 [4] was 10 nM and the IC50 [5] was 32 nM.
Molecule `Cc1cc(N2CCN(C)CC2)nc(N(CCCNc2ccnc3cc(Cl)ccc23)Cc2cccs2)n1` has an IC50 [4] of 10 nM and an IC50 [5] of 30 nM.
`FC(F)(F)c1cc(Nc2ncccn2)c2cccc(C(F)(F)F)c2n1` showed an IC50 at 72 h [6] of over 559000 nM.
Molecule `Cc1cc(N(CCNc2ccnc3cc(Cl)ccc23)Cc2ccccn2)nc(N2CCN(C)CC2)n1` has an IC50 [5] of 20 nM.
In the case of `CCN1CCN(c2nc(C)cc(N(CCNc3ccnc4cc(Cl)ccc34)Cc3ccccn3)n2)CC1`, the IC50 [4] is reported as 90 nM and the IC50 [5] is reported as 20 nM.
`Oc1ccc(-c2cc(-c3ccc(O)cc3)nc(NCCCCNc3ccnc4cc(Cl)ccc34)n2)cc1` showed an IC50 [7] of 320 nM.
`COc1ccc(-c2cc(-c3ccc(OC)c(OC)c3)nc(N3CCN(c4ccnc5cc(Cl)ccc45)CC3)n2)cc1OC` showed an IC50 [7] of 6170 nM.
Work on `Oc1ccc(-c2cc(-c3ccc(O)c(O)c3)nc(NCCCCNc3ccnc4cc(Cl)ccc34)n2)cc1` yielded an IC50 [7] of 1620 nM.
Work on `COc1ccc(-c2cc(-c3ccc(OC)cc3)nc(N3CCN(c4ccnc5cc(Cl)ccc45)CC3)n2)cc1` yielded an IC50 [7] of 7690 nM.
`Cc1ncc(C(C(=O)N(C)c2ccccc2C)N(Cc2cccc(C(F)(F)F)c2)C2CC2)cn1` (centres undefined) gave an EC50 [8] of 8100 nM, an EC50 [9] of 9800 nM and a CC50 [10] of over 30000 nM.
With `Cc1ccccc1-n1nnnc1C(c1cccnc1)N(C)Cc1cc(C(F)(F)F)ccc1F` (centres undefined) the EC50 [11] was 1000 nM.
Work on `COc1ccc(C(F)(F)F)cc1CN(C)C(c1cccnc1)c1nnnn1-c1ccccc1C` (centres undefined) yielded an EC50 [11] of 1200 nM and an EC50 [12] of 1700 nM.
Molecule `Cc1ccccc1-n1nnnc1C(c1cccnc1)N(Cc1cccc(C(F)(F)F)c1)C1CC1` (centres undefined) has a CC50 [13] of 15000 nM.
In the case of `Cc1ccccc1-n1nnnc1C(c1cccnc1)N(Cc1cc(C(F)(F)F)ccc1F)C1CC1` (centres undefined), the EC50 [11] is reported as 600 nM.
`Cc1ccccc1-n1nnnc1C(c1cncnc1)N(Cc1cccc(C(F)(F)F)c1)C1CC1` (centres undefined) gave an EC50 [14] of 400 nM and a CC50 [15] of 37000 nM.
`COc1ccc(C(F)(F)F)cc1CN(C1CC1)C(c1cccnc1)c1nnnn1-c1ccccc1C` (centres undefined) gave a CC50 [13] of 16000 nM.
For `Cc1ncc(Cn2cc(CCOC(=O)c3cccc(Cl)c3)nn2)c(N)n1`, the IC50 at 48 h [16] was over 200000 nM.
In the case of `Cc1ncc(Cn2cc(CCOC(=O)c3ccccc3)nn2)c(N)n1`, the IC50 at 48 h [16] is reported as over 200000 nM.
Work on `CCCN(C(c1cccnc1)c1nnnn1-c1ccccc1C)C1(c2cccc(C(F)(F)F)c2)CC1` (centres undefined) yielded a CC50 [13] of 10000 nM.
In the case of `Cc1ccccc1N(C)C(=O)C(c1cncnc1)N(Cc1cccc(C(F)(F)F)c1)C1CC1` (centres undefined), the EC50 [8] is reported as 400 nM, the EC50 [9] is reported as 790 nM and the CC50 [10] is reported as over 30000 nM.
